Structures can show the parent of a compound that is named as a salt.
Work on CN1CCC(C(=O)c2cccc(NC(=O)c3ccc(O)cc3)c2)CC1 (as salt: hydrochloride) yielded a melting point greater than 200 °C.
In the case of CN1CCC(C(=O)c2cccc(NC(=O)c3ccco3)c2)CC1 (as salt: hydrochloride), the melting point was greater than 200 °C.
CN1CCC(C(=O)c2cccc(NC(=O)c3ccc(F)cc3I)c2)CC1.Cl gave a melting point greater than 250 °C.
CN1CCC(C(=O)c2cccc(NC(=O)c3ccncc3)c2)CC1 (as salt: hydrochloride) showed a melting point greater than 200 °C.
Work on CN1CCC(C(=O)c2cccc(NC(=O)c3ccc(F)cc3F)c2)CC1 (as salt: hydrochloride) yielded a melting point of 181 to 183 °C.
Work on O=C(Nc1cccc(C(=O)C2CCNCC2)c1)c1ccc(F)cc1 (as salt: hydrochloride) yielded a melting point greater than 225 °C.
Work on Cl.Nc1cccc(C(=O)C2CCNCC2)c1 yielded a melting point of 208 to 210 °C.

From patent US6777428B1, “5-HT1f agonist” (Eli Lilly and Company, priority 1999, dated 2004)
